Article PMC5969508, “Stapled peptides as a new technology to investigate protein–protein interactions in human platelets” (Chemical Science, 2018)
Read-outs that look alike come from different tables or passages of the source. Each block holds one compound with its values, some of them ahead of it.

What was measured:
human platelets [1] = test: Platelet activation markers (PAC-1, CD62P, CD63 binding) by flow cytometry; format: cell-based; details: for platelet activation markers PAC-1, CD62P, CD63 (in words): washed human platelets, 10 μM, 1 h treatment, flow cytometry (Fig. 5B)
Description: Fig. 5 (A) Functionalised, stapled Bim BH3 peptides induce PS exposure in platelets. […] (B) Stapled Bim BH3 peptides, but not ABT737 nor 21, induce platelet activation. Platelet activation markers (% positive platelets) were investigated following 1 h of peptide treatment. [drawing 10] PAC-1, [drawing 11] CD62P and [drawing 12] CD63 binding. Statistical significance compared to 20: ****P < 0.0001, ***P between 0.0001 and 0.0005, **P between 0.0010 and 0.0050 ns = non-significant.
(§1) Ethical approval for this study was obtained from the Faculty Research Ethics Committee at Anglia Ruskin University, Cambridge, UK.
(§2) 1.1 Preparation of washed platelet suspension
Blood was collected into 11 mM sodium citrate and washed platelets were prepared as follows: Platelet-rich plasma (PRP) was obtained by centrifugation (240 g, 15 min). Prostaglandin E1 (PGE1, 2 µM) was added to prevent premature platelet activation, and the plasma was centrifuged at 640 g for 15 min. Platelets were suspended in calcium free Tyrode‘s buffer (CFT buffer, containing: 140 mM NaCl, 5 mM KCl, 10 mM N-2-hydroxyethylpiperazine-N‘-2-ethanesulfonic acid (HEPES), 5 mM Glucose, 0.42 mM NaH2PO4, 12 mM NaHCO3, titrated to pH 7.4 with NaOH) to a final concentration of 2x108 platelet/mL and rested at 37 °C for 1 h prior to experimentation.
Treated washed platelet suspensions (1x10^7/mL) were analysed by flow cytometry using a C6 Accuri Flow Cytometer (Beckton Dickinson, UK), in the presence or absence of Annexin-V-PE (BD Biosciences, UK), anti-PAC-1 (BD Biosciences), anti-CD62 (BD Pharmingen, UK), or anti-CD-63P (BD Pharmingen).
Peptides were used to a final concentration of 10 µM (1 mM DMSO stock solutions). At least 10,000 events were acquired per experiment. The entire platelet population was primarily gated by FSC. […]
(§3) The washed platelet suspension was rested at 37 °C for 1 h before commencing the experiment. […] For real time measurments, the peptides were added to the 250 μL of washed platelet suspension after events were recorded for 1 minute and monitored for a further 4 min. […]
The suspensions were analysed by […]

human platelets [2] = test: Confocal microscopy of platelets incubated with fluorescently labelled peptides; format: cell-based; details: live washed platelets, 10 µM FITC-labelled peptide, 15 minutes incubation, confocal imaging (Fig. SI_5)
Description: (§4) Fig. 3 A functionalised staple is required to induce peptide uptake into platelets. (A) Platelets were incubated with TAMRA labelled model peptides (10 μM final concentration) for 1 h (white), 2 h (grey) and 3 h incubation (black) and the percentage positive for TAMRA fluorescence was quantified using flow cytometry. (B) Peptides showing high uptake within the first hour were analysed during first 5 min following treatment. Changes in platelet-associated fluorescence were recorded in real time using flow cytometry. Unlabelled platelets were recorded for 30 s prior to addition of the given peptide. (C) Platelets were incubated with 10 μM of TAMRA-model peptides for 1 h prior to imaging by confocal microscopy. ^‡ […]
Peptide uptake experiments of the most permeable model peptides 5, 13–16 were repeated in the presence of platelet-rich plasma (PRP) to ensure realistic conditions (ESI, Fig. SI_2a ^†).
Figure SI_3. […]
Peptides were used to a final concentration of 10 µM. […] Images of TAMRA-labelled model peptide stained platelets were acquired after 1 h incubation1 using with excitation at 565 nm and emission was detected with a 560 -615 nm BP filter. […]
were acquired after 15 minutes incubation1 using excitation at 488 nm and emission was detected with […]

Bcl-xL = biological target: T1, Bcl-xL (Homo sapiens, UniProt Q07817); test: Surface plasmon resonance (SPR) direct binding to Bcl-xL; details: 25 °C
T1 construct: made in house; host or cells: Escherichia coli BL21 Gold DE3
Description: 1.9 Surface Plasmon Resonance (SPR)
The present method utilizes a Surface plasmon resonance (SPR)-based biosensor (BiacoreTM, GE Healthcare,
Uppsala, Sweden) to characterize Bcl-xL peptide interaction partners.
The SPR assay is configured to examine direct binding of peptide s to Bcl-xL derivatized sensor surfaces and
generate relative affinity values (KDapp) to provide relative ranking data for the series of peptides under
BiacoreTM T200 (GE Healthcare, Uppsala, Sweden) was used to conduct all experiments reported herein. Sensor
surface preparation and all interaction analyses experiments were performed at 25 °C utilizing a data collection
rate of 10 Hz. Reagents were purchased from GE Healthcare. Running buffer containing 10 mM Hepes, pH 7.4,
150 mM sodium chloride, 1 mM dithiothreitol, 1% DMSO and 0.05% polysorbate 20 were utilized throughout
surface preparation and all interaction analysis experiments.
Histidine tagged Bcl-xL protein was diluted to 5 μg/mL and captured onto Sensor chip NTA via the following
sequence of injections to achieve a target Bcl-xL surface density of 700 R.U. (response units). The carboxymethyl
dextran surface of Sensor chip NTA was activated by injection of an aqueous solution containing 50 mM N-hydroxy
succinimide (NHS) and 200 mM N-ethyl-N’-(dimethylaminopropyl) carbodiimide (EDC). 500 μM nickel sulfate (NiSO4)
was subsequently injected for one minute and utilized to capture Bcl-xL from a 5 μg/mL solution injected for one
minute. A further one-minute injection of 1M ethanolamine, pH 8.5 was performed to deactivate any unreacted
carboxymethylesters.3 The flow-rate for all injections during surface derivatization was 10 µl/min.

human platelets [3] = test: Peptide uptake in washed platelet suspension by flow cytometry; format: cell-based; details: for positive platelets (TAMRA fluorescence), peptide uptake: TAMRA-labelled model peptide 10 μM (1 mM DMSO stock), 37 °C in the dark, 3 h incubation, flow cytometry, mean ± SEM, at least three donors
Description: Washed platelet suspensions were incubated with peptides for varying periods of time and cellular uptake was quantified using flow cytometry. […] Only 34.9 ± 7.8% of platelets were fluorescent following 8 (poly-lysine) treatments after 3 hours. Changes in fluorescence were not observed with other peptides (Fig. 3A).
as §4
In order to explore the rate of peptide uptake, changes in platelet fluorescence were monitored during the first 5 minutes (Fig. 3B) and after 15, 30, 45 and 60 minutes following treatment with peptides (Fig. SI_1, ESI ^†). More than 50% of platelets became fluorescent during the first 15 minutes of incubation with peptides 13–16, with a further increase after the first 45 minutes. Some 40–50% of platelets were fluorescent after 15 minutes following treatment with peptides 2, 5 or 8. No further increase was observed thereafter (Fig. SI_1, ESI ^†).
as §1, §2
Blood was collected into 11 mM sodium citrate and washed platelets were prepared as follows: Platelet-rich plasma (PRP) was obtained by centrifugation (240 g, 15 min). Prostaglandin E1 (PGE1, 2 µM) was added to prevent premature platelet activation, and the plasma was centrifuged at 640 g for 15 min. […]
Treated washed platelet suspensions (1x10^7/mL) were analysed by flow cytometry using a C6 Accuri Flow Cytometer (Beckton Dickinson, UK), in the presence or absence of Annexin-V-PE (BD Biosciences, UK), anti-PAC-1 (BD Biosciences), anti-CD62 (BD Pharmingen, UK), or anti-CD-63P (BD Pharmingen). […]
as §3

human platelets [4] = test: PS exposure (annexin-V binding) by flow cytometry; format: cell-based; details: washed human platelets, 10 μM, 37 °C, time course up to 3 h, flow cytometry (Fig. 5A)
Description: Platelet activation markers (% positive platelets) were investigated following 1 h of peptide treatment. […] CD63 binding.
Human blood was collected from healthy volunteers, who had not taken medication for two weeks,
following informed consent in accordance with the Declaration of Helsinki. Blood was collected into 11 mM sodium citrate and washed platelets were prepared as follows: Platelet-rich plasma (PRP) was obtained by centrifugation (240 g, 15 min). Prostaglandin E1 (PGE1, 2 µM) was added to prevent premature platelet activation, and the plasma was centrifuged at 640 g for 15 min. […]
PS exposure was assessed after incubation of 50 µL of washed platelet suspensions at 37 °C in 445 µL of […]
under the protection from direct light and analysed by flow cytometry.
Platelet activation markers (PAC -1, CD62P and CD63 binding) were assessed after incubation of 3 µL of […]
antibody and the peptide (1.1 μL of 1 mM stock solution in DMSO) . The suspensions were analysed by […]

[5] = SPR Biacore T200, His-tagged Bcl-xL on Sensor chip NTA, 7-point 2-fold dilution 33.3 nM to 1.03 nM, steady state fit, Table S1, read-out: Rel. Kdapp
[6] = washed human platelet suspension

T1 sequence (Q07817 whole entry): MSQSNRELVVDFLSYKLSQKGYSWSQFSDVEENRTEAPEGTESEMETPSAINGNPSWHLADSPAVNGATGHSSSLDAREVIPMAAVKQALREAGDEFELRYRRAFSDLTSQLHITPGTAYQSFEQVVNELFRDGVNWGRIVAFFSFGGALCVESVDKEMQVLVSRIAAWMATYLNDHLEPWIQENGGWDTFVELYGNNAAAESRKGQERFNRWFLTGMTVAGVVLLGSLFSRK

Structure (SMILES): CN(C)CC[C@H](CSc1ccccc1)Nc1ccc(S(=O)(=O)NC(=O)c2ccc(N3CCN(Cc4ccccc4-c4ccc(Cl)cc4)CC3)cc2)cc1[N+](=O)[O-] [ABT737]
PAC1-positive platelets (integrin αIIbβ3 activation) (human platelets [1]; washed human platelets in CFT buffer pH 7.4, 10 μM, 37 °C, after 1 hour, flow cytometry, mean ± SEM): ineffective
platelet activation markers PAC-1, CD62P, CD63 (in words) (human platelets [1]): no increase in any activation marker

localisation / platelet permeability of FITC-labelled Bim BH3 peptide (human platelets [2]): able to enter the platelet cytosol
Kd (Bcl-xL; [5]): > 33 nM
Structure (SMILES): CC[C@H](C)[C@H](NC(C)=O)C(=O)N[C@@H](Cc1c[nH]c2ccccc12)C(=O)N[C@H](C(=O)N[C@@H](C)C(=O)N[C@@H](CCC(N)=O)C(=O)N[C@@H](CCC(=O)O)C(=O)N[C@@H](CC(C)C)C(=O)N[C@@H](CCCNC(=N)N)C(=O)N[C@@]1(C)CCCC=CCCC[C@@](C)(C(=O)N[C@@H](Cc2ccccc2)C(=O)N[C@@H](CC(N)=O)C(=O)N[C@@H](C)C(=O)N[C@@H](Cc2ccc(O)cc2)C(=O)N[C@@H](Cc2ccc(O)cc2)C(=O)N[C@@H](C)C(=O)N[C@@H](CCCNC(=N)N)C(=O)N[C@@H](CCCNC(=N)N)C(N)=O)NC(=O)[C@H](CC(=O)O)NC(=O)CNC(=O)[C@H]([C@@H](C)CC)NC1=O)[C@@H](C)CC [Bim SAHBa, reference compound]
relative KDapp (Bcl-xL; SPR, His-tagged Bcl-xL captured on Sensor chip NTA, steady state affinity, as quoted in main text): reduced binding affinity compared to the wild-type and peptide 19

positive platelets (TAMRA fluorescence), peptide uptake (human platelets [3]; [6]): 73.0 ± 13.3%
Structure (SMILES): CC(C)C[C@@H]1NC(=O)[C@H](CC(C)C)NC(=O)[C@H](CCCNC(=N)N)NC(=O)[C@H](Cc2c[nH]c3ccccc23)NC(=O)[C@H](CC(C)C)NC(=O)[C@H](CC(=O)O)NC(=O)[C@@H](NC(=O)[C@H](Cc2ccccc2)NC(=O)[C@@H](NC(=O)[C@H](CCC(=O)O)NC(=O)CCCCCNC(=O)c2ccc3c(c2)C(=O)OC32c3ccc(N(C)C)cc3Oc3cc(N(C)C)ccc32)[C@@H](C)O)CCCn2cc(nn2)-c2cc(C(=O)N[C@@H](CCCNC(=N)N)C(=O)N[C@@H](CCCNC(=N)N)C(N)=O)cc(c2)-c2cn(nn2)CCC[C@@H](C(=O)N[C@@H](CCC(=O)O)C(=O)N[C@@H](CC(N)=O)C(N)=O)NC1=O [compound 4]

positive platelets (TAMRA fluorescence), peptide uptake (human platelets [3]; [6]): 87.0 ± 7.3%
fluorescent platelets, peptide uptake (human platelets [3]; washed human platelet suspension, TAMRA-labelled model peptide 10 μM, 37 °C, first 15 minutes of incubation, flow cytometry (Fig. SI_1)): 40–50%
change in platelet-associated fluorescence in real time (human platelets [3]; washed human platelets, TAMRA-labelled peptide, continuous flow cytometry during first 5 minutes of treatment (Fig. 3B)): rapid increase in platelet fluorescence
Structure (SMILES): CC(C)C[C@@H]1NC(=O)[C@H](CC(C)C)NC(=O)[C@H](CCCNC(=N)N)NC(=O)[C@H](Cc2c[nH]c3ccccc23)NC(=O)[C@H](CC(C)C)NC(=O)[C@H](CC(=O)O)NC(=O)[C@@H](NC(=O)[C@H](Cc2ccccc2)NC(=O)[C@@H](NC(=O)[C@H](CCC(=O)O)NC(=O)CCCCCNC(=O)c2ccc3c(c2)C(=O)OC32c3ccc(N(C)C)cc3Oc3cc(N(C)C)ccc32)[C@@H](C)O)CCCn2cc(nn2)-c2cc(C(=O)N[C@@H](CCCNC(=N)N)C(=O)N[C@@H](CCCNC(=N)N)C(=O)N[C@@H](CCCNC(=N)N)C(N)=O)cc(c2)-c2cn(nn2)CCC[C@@H](C(=O)N[C@@H](CCC(=O)O)C(=O)N[C@@H](CC(N)=O)C(N)=O)NC1=O [compound 5]

Kd (Bcl-xL; [5]): 26.2 nM
Kd (Bcl-xL; SPR, His-tagged Bcl-xL captured on Sensor chip NTA, steady state affinity, as quoted in main text, read-out: relative KDapp): 26 nM
Structure (SMILES): CC[C@H](C)[C@H](NC(C)=O)C(=O)N[C@@H](Cc1c[nH]c2ccccc12)C(=O)N[C@H](C(=O)N[C@@H](C)C(=O)N[C@@H](CCC(N)=O)C(=O)N[C@@H](CCC(=O)O)C(=O)N[C@@H](CC(C)C)C(=O)N[C@@H](CCCNC(=N)N)C(=O)N[C@H]1CCCn2cc(nn2)-c2cc(C(=O)N[C@@H](CCCNC(=N)N)C(=O)N[C@@H](CCCNC(=N)N)C(=O)N[C@@H](CCCNC(=N)N)C(N)=O)cc(c2)-c2cn(nn2)CCC[C@@H](C(=O)N[C@@H](Cc2ccccc2)C(=O)N[C@@H](CC(N)=O)C(=O)N[C@@H](C)C(=O)N[C@@H](Cc2ccc(O)cc2)C(=O)N[C@@H](Cc2ccc(O)cc2)C(=O)N[C@@H](C)C(=O)N[C@@H](CCCNC(=N)N)C(=O)N[C@@H](CCCNC(=N)N)C(N)=O)NC(=O)[C@H](CC(=O)O)NC(=O)CNC(=O)[C@H]([C@@H](C)CC)NC1=O)[C@@H](C)CC [peptide 19]

Rel. Kdapp (Bcl-xL; SPR Biacore T200, His-tagged Bcl-xL on Sensor chip NTA, 7-point 2-fold dilution 33.3 nM to 1.03 nM, steady state fit, Table S1): No binding
Structure (SMILES): CC[C@H](C)[C@H](NC(C)=O)C(=O)N[C@@H](Cc1c[nH]c2ccccc12)C(=O)N[C@H](C(=O)N[C@@H](C)C(=O)N[C@@H](CCC(N)=O)C(=O)N[C@@H](CCC(=O)O)C(=O)N[C@@H](CC(C)C)C(=O)N[C@@H](CC(=O)O)C(=O)N[C@H]1CCCn2cc(nn2)-c2cc(C(=O)N[C@@H](CCCNC(=N)N)C(=O)N[C@@H](CCCNC(=N)N)C(=O)N[C@@H](CCCNC(=N)N)C(N)=O)cc(c2)-c2cn(nn2)CCC[C@@H](C(=O)N[C@@H](Cc2ccccc2)C(=O)N[C@@H](CC(N)=O)C(=O)N[C@@H](C)C(=O)N[C@@H](Cc2ccc(O)cc2)C(=O)N[C@@H](Cc2ccc(O)cc2)C(=O)N[C@@H](C)C(=O)N[C@@H](CCCNC(=N)N)C(=O)N[C@@H](CCCNC(=N)N)C(N)=O)NC(=O)[C@H](CC(=O)O)NC(=O)CNC(=O)[C@H]([C@@H](C)CC)NC1=O)[C@@H](C)CC [peptide 21]
PS exposure / annexin-V binding (in words) (human platelets [4]): did not result in PS exposure
platelet activation markers PAC-1, CD62P, CD63 (in words) (human platelets [1]): nonspecific activation was not observed
